Literature values in US12213953B2, “Extended release midodrine hydrochloride compositions and methods of use” (XENAMED CORP., priority 2017, dated 2025).
Where a name gives a salt, the structure may show the parent alone.

Columns and labels:
[1] = high water solubility and high permeability
[2] = oral 10 mg immediate release tablet

COc1ccc(OC)c(C(O)CNC(=O)CN)c1 (racemic) [midodrine HCl, (±)-2-amino-N-[2-(2,5-dimethoxyphenyl)-2-hydroxyethyl]acetamide monohydrochloride]
BCS classification [1]: BCS Class I

COc1ccc(OC)c(C(O)CN)c1 (centres unmarked) [desglymidodrine]
effect of food on bioavailability of desglymidodrine (in vivo): not affected by food | first peak blood concentration of desglymidodrine [2]: about 10 ng/mL

COc1ccc(OC)c(C(O)CNC(=O)CN)c1 (centres unmarked) [midodrine]
half-life of midodrine [2]: approximately 25 minutes | time to peak plasma levels of midodrine [2]: about 30 minutes
